According to article PMC2946983 (Bioorganic & medicinal chemistry, 2010):

What was measured:
[1] = molecular target: T1, cloned human serotonin 5-HT2C receptor (Homo sapiens, UniProt P28335); assay: radioligand binding
T1 sequence (P28335 33-458): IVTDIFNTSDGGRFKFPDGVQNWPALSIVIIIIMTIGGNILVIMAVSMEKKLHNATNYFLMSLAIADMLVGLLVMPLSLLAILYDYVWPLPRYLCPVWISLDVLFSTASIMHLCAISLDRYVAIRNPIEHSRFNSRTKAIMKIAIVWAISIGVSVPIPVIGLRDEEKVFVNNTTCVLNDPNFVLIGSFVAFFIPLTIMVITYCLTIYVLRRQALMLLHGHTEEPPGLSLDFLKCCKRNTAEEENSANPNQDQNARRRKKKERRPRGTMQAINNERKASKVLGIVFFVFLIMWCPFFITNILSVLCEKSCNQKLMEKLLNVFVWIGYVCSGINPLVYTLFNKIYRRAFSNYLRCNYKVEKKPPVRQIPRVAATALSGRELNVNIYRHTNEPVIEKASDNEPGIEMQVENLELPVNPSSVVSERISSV

[2] = molecular target: cloned human serotonin 5-HT2A receptor (Homo sapiens, UniProt P28223); assay: radioligand binding; conditions: for Binding Affinity (Ki nM) 5-HT2A±SEM: n = 3, ND = not detected at highest concentration tested
[3] = molecular target: T2, cloned human serotonin 5-HT1A receptor (Homo sapiens, UniProt P08908); assay: radioligand binding; conditions: for affinity for 5-HT1A receptor: stated in words
T2 sequence (P08908 1-422): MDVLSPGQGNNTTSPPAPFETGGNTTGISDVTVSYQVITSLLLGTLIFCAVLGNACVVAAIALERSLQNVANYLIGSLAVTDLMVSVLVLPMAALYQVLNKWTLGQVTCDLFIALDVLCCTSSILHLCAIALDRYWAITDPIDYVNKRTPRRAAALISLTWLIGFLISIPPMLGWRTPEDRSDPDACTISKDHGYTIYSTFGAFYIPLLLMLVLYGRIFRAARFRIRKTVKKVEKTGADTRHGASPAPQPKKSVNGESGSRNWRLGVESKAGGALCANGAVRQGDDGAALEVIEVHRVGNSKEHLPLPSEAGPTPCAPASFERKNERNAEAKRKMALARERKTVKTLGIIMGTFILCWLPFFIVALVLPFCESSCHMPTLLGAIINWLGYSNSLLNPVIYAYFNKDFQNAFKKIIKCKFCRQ

[4] = test system: human serotonin 5-HT2C receptor; conditions: isolated natural product; cited from earlier work
[5] = read-out: radioligand affinity KD ± S.D., saturation isotherm

cloned human serotonin 5-HT2A receptor, sequence (P28223 whole entry): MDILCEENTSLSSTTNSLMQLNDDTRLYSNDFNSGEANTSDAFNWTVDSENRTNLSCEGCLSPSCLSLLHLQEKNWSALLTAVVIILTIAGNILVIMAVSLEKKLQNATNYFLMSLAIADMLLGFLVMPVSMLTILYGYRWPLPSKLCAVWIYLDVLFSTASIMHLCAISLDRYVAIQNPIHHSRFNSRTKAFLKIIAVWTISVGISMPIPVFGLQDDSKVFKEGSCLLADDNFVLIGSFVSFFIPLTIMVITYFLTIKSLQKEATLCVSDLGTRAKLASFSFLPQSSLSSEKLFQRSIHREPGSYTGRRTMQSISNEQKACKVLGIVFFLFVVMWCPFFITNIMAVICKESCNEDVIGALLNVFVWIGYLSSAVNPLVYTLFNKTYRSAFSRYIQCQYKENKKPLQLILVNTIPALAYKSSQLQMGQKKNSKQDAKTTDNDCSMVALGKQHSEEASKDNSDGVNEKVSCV

SMILES | Binding Affinity (Ki nM) 5-HT2A±SEM [2] | affinity for 5-HT1A receptor [3] | also measured
CN1C(=N)N(C)/C(=C/c2c[nH]c3cc(Br)ccc23)C1=O [Compound 15, 5-(6-bromo-1H-indol-3-ylmethylene)-2-imino-1,3-dimethyl-imidazolidin-4-one] | not detectable | – | Ki Selectivity Ratio 5-HT2A/5-HT2C [1]: >45
COc1ccccc1N1CCN(CCN(C(=O)c2ccc(F)cc2)c2ccccn2)CC1 [[^3H]MPPF, 4-(2′-Methoxy)-phenyl-1-[2′-(N-2″-pyridinyl)-p-fluorobenzamido]ethyl-piperazine, reference compound] | – | – | Kd [3, 5]: 0.267 ± 0.036 nM
CN1CN(c2ccccc2)C2(CCN(CCCC(=O)c3ccc(F)cc3)CC2)C1=O [[^3H]methylspiperone, N-Methyl-8-[4-(4-fluorophenyl)-4-oxobutyl]-1-phenyl-1,3,8-triazaspiro-[4.5]decan-4-one, reference compound] | – | – | Kd [2, 5]: 0.246 ± 0.042 nM
CN1C(=N)N(C)/C(=C/c2c[nH]c3cc(Cl)ccc23)C1=O [Compound 14, (E)-5-[(6-chloro-1H-indol-3yl)methylene]-2-imino-1,3-dimethylimidazolidin-4-one] | lack of affinity | lack of affinity | –
CN1C(=N)NC(=O)/C1=C\c1c[nH]c2cc(Cl)c(Cl)cc12 [Compound 4, (E)-2-amino-5-[(5,6-dichloro-1H-indol-3-yl)methylene]-1-methyl-1H-imidazol-4(5H)-one] | little or no apparent affinity | little or no apparent affinity | Binding Affinity (Ki nM) 5-HT2C±SEM ([1]; n = 3): little or no apparent affinity
CN1C(=N)N(C)/C(=C/c2c[nH]c3cc(Cl)c(Cl)cc23)C1=O [Compound 16, (E)-5-[(5,6-dichloro-1H-indol-3-yl)methylene]-2-imino-1,3-dimethylimidazolidin-4-one] | no detectable affinity | no detectable affinity | –
CN1C(=N)NC(=Cc2c[nH]c3cc(Br)ccc23)C1=O [6-bromo-2′-de-N-methylaplysinopsin] | – | – | selectivity for 5-HT2C over 5-HT2A receptor [4]: > 40 fold
